Patent publication US20230158036A1, “MEDICAMENT FOR THE TREATMENT OF PAIN” (Shionogi & Co., Ltd., priority 2020, published 2023)

What was measured:
[1] = system: knee osteoarthritis patients; conditions: 300 mg twice daily oral, after 4 weeks; NPRS before administration 6.8; cited from earlier work
[2] = system: patients of interstitial cystitis/bladder pain syndrome; conditions: twice daily oral, gradually increased from 50 mg to 300 mg, after 4 weeks; NPRS before administration 6.2; cited from earlier work
[3] = target: T1, rat P2X3 receptor (Rattus norvegicus, UniProt P49654); assay: Evaluation of rat P2X3 receptor inhibitory activity in the presence of rat serum albumin (Test Example 4); assay type: cell-based
T1 construct: expressed in transfected cells; host or cells: C6BU-1 cells (stably expressing line)
T1 sequence (P49654 1-397): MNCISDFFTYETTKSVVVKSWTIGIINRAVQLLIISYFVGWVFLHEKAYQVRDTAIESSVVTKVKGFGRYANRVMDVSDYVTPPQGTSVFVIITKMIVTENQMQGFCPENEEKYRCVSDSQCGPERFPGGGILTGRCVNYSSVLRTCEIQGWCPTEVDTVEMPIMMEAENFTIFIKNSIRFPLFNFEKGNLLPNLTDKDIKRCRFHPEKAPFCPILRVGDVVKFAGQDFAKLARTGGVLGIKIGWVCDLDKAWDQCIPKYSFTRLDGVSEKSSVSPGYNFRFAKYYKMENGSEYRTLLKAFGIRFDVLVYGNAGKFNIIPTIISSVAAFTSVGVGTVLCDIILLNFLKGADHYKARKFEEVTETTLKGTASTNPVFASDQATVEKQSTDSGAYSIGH
Description: (Test Example 4) Evaluation of Rat P2X3 Receptor Inhibitory Activity in the Presence of Rat Serum Albumin (RSA)

[4] = system: partial sciatic nerve ligation model in rats; assay: Drug efficacy in Seltzer model (partial sciatic nerve ligation, von Frey tactile allodynia; Test Example 5); assay type: in vivo; conditions: rat, 10 mg/kg oral, 3 hours after administration, two weeks after operation
Description: (Test Example 5) Assessment of Drug Efficacy in Seltzer Model
Partial Sciatic Nerve Ligation Model in Rats
Each rat was anesthetized with isoflurane and the hair of the left thigh was shaved. An incision was made in the skin just below the hip bone. The muscle was bluntly dissected to expose the sciatic nerve. ⅓ to ½ of the sciatic nerve was strongly ligated with a thread, and the muscle and the skin were sutured. This is referred to as a nerve ligated side. The right thigh underwent an identical procedure with the left hind limb except for the ligation of the sciatic nerve. This is referred to as a sham operated side.
Two weeks after the operation, the effect on tactile allodynia was assessed using von Frey filaments. Two weeks after the operation, for habituation, the rats were placed into a plastic cage on a wire mesh bottom. […] Pain thresholds were measured for the left and right hind limbs and these were used as pre-treatment pain thresholds. […] Pain thresholds were measured for the right and left hind limbs at 3 hours after the drug administration, and these were used as post-treatment pain thresholds. A percent reversal value for each rat was calculated using the following formula. […]

[5] = system: rat diabetic neuropathic pain model; assay: Drug efficacy in diabetic neuropathic pain model (STZ, Randall-Selitto; Test Example 6); assay type: in vivo; conditions: 10 mg/kg oral, 3 hours after administration
Procedure: (Test Example 6) Assessment of Drug Efficacy in Diabetic Neuropathic Pain Model
Preparation of Rat Diabetic Neuropathic Pain Model
To overnight fasted rats, […] of streptozotocin (STZ) was intravenously administered to prepare a diabetes model. As a control, rats to which saline was administered were also prepared.
(§1) Two weeks after the administration of STZ, the analgesic effect of the compound represented by Formula (I) was evaluated by the Randall-Selitto method. […] On the day of the test, the pain threshold before the administration of the compound represented by Formula (I) was measured, and then after the administration of the test substance, the pain threshold was measured. The compound represented by Formula (I) was homogenized with mortar and pestle and suspended in 0.5% Methyl Cellulose to prepare a suspension, and it was orally administered at 10 mg/kg to the animals using a syringe attached with a sonde. Pain thresholds were measured for the hind limbs at 3 hours after the administration of the test substance, and these were used as post-administration pain thresholds. A percent reversal value for each rat was calculated using the following formula. The analgesic effects of the compound were compared.
% Reversal value=(post-administration pain threshold−pre-administration pain threshold)/(pain threshold of saline-administered rat−pre-administration pain threshold)×100

[6] = system: rat knee osteoarthritis model; assay: Drug efficacy in knee osteoarthritis pain model (MIA, hind limb load distribution; Test Example 7); assay type: in vivo; conditions: 10 mg/kg oral, 3 hours after administration
Procedure: (Test Example 7) Assessment of Drug Efficacy in Knee Osteoarthritis Pain Model
Preparation of Rat Knee Osteoarthritis Model
Under isoflurane anesthesia, a knee joint on one side was shaved, and a monoiode sodium acetate (MIA) solution (saline solution, up to 5 mg/50 μL/rat) was intraarticularly administered.
Two weeks after the MIA administration, the analgesic effect of the compound represented by Formula (I) was evaluated. This test was based on a system for measuring a load distribution applied to hind limbs of a rat, and a ratio of load differences between left and right hind limbs was used as a pain threshold. On the day of the test, the pain threshold before the administration of the compound represented by Formula (I) was measured, and then after the administration of the test substance, the pain threshold was measured. […] Pain thresholds were measured for the hind limbs at 3 hours after the administration of the test substance, and these were used as post-administration pain thresholds. The load difference was measured up to three times, and the average value thereof was used as the pain threshold.
A percent reversal value for each rat was calculated using the following formula. […]

[7] = system: rat inflammatory pain model; assay: Drug efficacy in inflammatory pain model (FCA, Randall-Selitto; Test Example 8); assay type: in vivo; conditions: 10 mg/kg oral, 1 hour after administration
Procedure: (Test Example 8) Assessment of Drug Efficacy in Inflammatory Pain Model
Preparation of Rat Inflammatory Pain Model
Under isoflurane anesthesia, FCA (12.5-100 μg) was subcutaneously injected into the hind limb of a rat to prepare an inflammatory pain model.
as §1, with “FCA,” for “STZ,”, “1 hour” for “3 hours”
% Reversal value=(post-administration pain threshold−pre-administration pain threshold)/(pain threshold of hind limb on FCA-non-administered side−pre-administration pain threshold)×100

[8] = system: mouse bladder pain model; assay: Drug efficacy in cystitis pain model (cyclophosphamide, automatic von Frey; Test Example 9); assay type: in vivo; conditions: 3 mg/kg oral, 1 hour after administration
Procedure: (Test Example 9) Assessment of Drug Efficacy in Cystitis Pain Model
Preparation of Mouse Bladder Pain Model
Cyclophosphamide was dissolved in physiological saline or the like, and the solution was intraperitoneally administered to mice. Cyclophosphamide was administered at 150 mg/kg once daily consecutively for four days. As a control, mice to which saline was administered were also prepared.
The analgesic effect of the compound represented by Formula (I) was evaluated the day after the final administration of cyclophosphamide. In this test, mechanical stimulation by an automatic von Frey device was applied to the periphery of the lower abdomen while holding the mouse, and with respect to the resulting escape behavior defined as pain-like behavior, the pain threshold was determined. On the day of the test, the pain threshold before the administration (pre-administration pain threshold) of the compound represented by Formula (I) was measured, and then after the administration of the test substance, the pain threshold was measured. […] Pain thresholds were measured at 1 hour after the administration of the test substance, and these were used as post-administration pain thresholds. A percent reversal value for each rat was calculated using the following formula. […]

[9] = system: mouse bone cancer pain model; assay: Drug efficacy in mouse bone cancer pain model (NCTC2472 cells in femur, von Frey; Test Example 10); assay type: in vivo; conditions: 10 mg/kg oral, two weeks after operation
Description: (Test Example 10) Assessment of Drug Efficacy in Mouse Bone Cancer Pain Model
Preparation of Mouse Bone Cancer Pain Model
The skin was incised under isoflurane anesthesia, the muscles were torn to expose the left femur, a hole was made in the bone marrow cavity using a 26 G needle, and tumor cells (NCTC2472 cells derived from C3H/HeN mice) were transplanted using a 30 G needle. The hole made in the femoral bone marrow cavity was closed with dental cement, and then the skin was sutured. Mice in sham-operated groups were prepared by administering HBSS instead of tumor cells.
Two weeks after the operation, the effect on tactile allodynia was assessed using von Frey filaments. Two weeks after the operation, for habituation, the mice were placed into a plastic cage on a wire mesh bottom. […] The pain threshold was evaluated for the operated hind limb and defined as a pre-administration pain threshold, and the compound represented by the formula (I) was administered to the animal at 10 mg/kg. […] Pain thresholds were measured for the operated hind limbs after the administration of the test substance, and these were used as post-administration pain thresholds. A percent reversal value for each rat was calculated using the following formula. […]

[10] = system: acetic acid-induced urination disorder model; assay: Drug efficacy in acetic acid-induced urination disorder model (Test Example 11); assay type: in vivo; conditions: rat, 3 mg/kg oral
Procedure: (Test Example 11) Assessment of Drug Efficacy in Acetic Acid-Induced Urination Disorder Model
Preparation of acetic acid-induced urination disorder model
A catheter was placed in a rat bladder under isoflurane anesthesia. After 2 days from the surgery for placing the catheter, 0.3% acetic acid was administered at 4 mL/hr over 30 minutes to induce cystitis. In this model, the amount of urine per urinating action and the voiding interval decreased.
On the day after acetic acid was administered, the amount of urine per urinating action and the voiding interval before drug administration were evaluated. The compound represented by Formula (I) was homogenized with mortar and pestle and suspended in 0.5% Methyl Cellulose to prepare a suspension, and it was orally administered at 0.1 mg/kg, 0.75 mg/kg, or 3 mg/kg to the rats using a syringe attached with a sonde. The amount of urine per urinating action and the voiding interval during a period from 30 minutes to 150 minutes after administration were measured. The value before administration for each individual was assumed to be 100%, and the change rate after administration was calculated.
Rate of change in amount of voided urine per urinating action=(amount of urine per urinating action after drug treatment of cystitis rat[…]amount of voided urine per urinating action before drug treatment of cystitis rat)×100
Rate of change in voiding interval=(voiding interval after drug treatment of cystitis rat[…]voiding interval before drug treatment of cystitis rat)×100

[11] = 30 to 150 minutes after administration, value before administration = 100%

Row | IC50 [3] [nM] | SMILES | Numeric pain rating scale (NPRS) after administration [1] | Numeric pain rating scale (NPRS) after administration [2] | Percent reversal value (pain threshold, von Frey) [4] [%] | Percent reversal value (pain threshold, Randall-Selitto) [5] [%] | Percent reversal value (load difference between left and right hind limbs) [6] [%] | Percent reversal value (pain threshold, Randall-Selitto) [7] [%] | Percent reversal value (lower abdomen pain threshold, automatic von Frey) [8] [%] | Percent reversal value (pain threshold, von Frey) [9] [%] | Rate of change in amount of voided urine per urinating action [10, 11] [%] | Rate of change in voiding interval [10, 11] [%] | Effect on voiding interval and amount of voided urine (FIGS. 1 and 2), in words ([10]; p<0.05 vs vehicle (Dunnett))
1 |  | COc1cc(C(C)C)c(Oc2cnc(N)nc2N)cc1S(N)(=O)=O [Gefapixant] | 4.9 | 3.3 |  |  |  |  |  |  |  |  | 
2 | 10 | C[C@@H](Cn1c(=O)[nH]/c(=N\c2ccc(Oc3ccccn3)cc2)n(Cc2ccc(Cl)cc2)c1=O)C(=O)O [compound represented by Formula (I), (2S)-3-(3-[(4-chlorophenyl)methyl]-2,6-dioxo-4-([4-(pyridin-2-yloxy)phenyl]amino)-3,6-dihydro-1,3,5-triazin-1(2H)-yl)-2-methyl-propanoic acid] |  |  | 65 | 55 | 51 | 58 | 46 | 55 | 208.4 | 219.0 | significant improving effect
